According to patent US9428732B2, “Compositions and methods for differentiating pluripotent stem cells into primitive blood cells and uses thereof” (Primorigen Biosciences, Inc., priority 2011, dated 2016):

Test system: pluripotent stem cell differentiation cultures
Test: Quantitative gene expression analysis during differentiation (Day 0, 4, 8, 12, 15)
Assay type: cell-based, human
Settings: for expression of SCL: FIG. 6M; for expression of FOXF1: FIG. 6E; for expression of FOXC1: FIG. 6F
Description: RNA from the pluripotent stem cell differentiation cultures was harvested at multiple time points corresponding to stages of development from pluripotent stem cells to hematopoietic lineages during in vitro culture. Cells were lysed using Trizol (Life Technologies, Carlsbad Calif.), and RNA was isolated according to the manufacturer's specifications. A cDNA library was reverse transcribed by the High Capacity RNA-to-cDNA Kit from Applied Biosystems (Life Technologies, Carlsbad, Calif.). PCR products were amplified for 40 cycles using primers designed for the gene of interest.
Gene expression studies were carried out to determine expression of key genes for the major divergences in the pathway from iPS to HSC. Briefly, RNA from the differentiation cultures was harvested at multiple time points (Day 0, 4, 8, 12, 15), corresponding to stages of development during in vitro culture and differentiation of pluripotent stem cells to hematopoietic lineages using Differentiation Medium 1. Cells were lysed using Trizol (Life Technologies, Carlsbad Calif.) and RNA was isolated according to manufacturer's specifications. A cDNA library was reverse transcribed using the RNA-to-cDNA Kit from Applied Biosystems (Life Technologies, Carlscad, Calif.). PCR products were amplified using appropriate primers designed for the genes of interest for 40 cycles.
To understand how RA-signaling inhibition with DEAB may lead to increased output of the most primitive blood cells (phenotypic HSCs: CD45+, CD43+, CD34+, CD38−, CD90+, CD45RA−) from pluripotent stem cells without an increase in the total blood (mature cells and progenitors), we performed quantitative gene expression analyses for key development markers at various time points during the differentiation protocol. As the developmental marker genes we surveyed are not known to be direct targets of RA signaling, we can expect the marker gene expression levels to correlate to the cell numbers in culture.

[1] = DEAB vs DMSO, early time points

## CCN(CC)c1ccc(C=O)cc1 [DEAB, 4-diethylaminobenzaldehyde]
DEAB compared to DMSO, Day 15
  expression of SCL: increased SCL expression
DEAB vs DMSO, Day 8-12
  expression of SCL: Increased SCL expression with DMSO compared to DEAB
DEAB vs DMSO, Day 8 onward
  expression of FOXF1: comparable
DEAB vs DMSO, Day 12-15, FIG. 6I
  expression of RUNX1 (definitive hematopoietic cell marker): increased expression
DEAB vs DMSO, Day 12 onward, FIG. 6G
  expression of cardiogenic lateral plate mesoderm marker NKX2.5: reduced expression
DEAB vs DMSO, Days 6-12
  expression of FOXC1: significantly reduced
DEAB vs DMSO, FIG. 6C
  increase in expression of primitive streak mesoderm marker MIXL1: 20%
DEAB vs DMSO, FIG. 6D
  expression of endoderm specific marker SOX17: significantly reduced
DEAB vs DMSO, FIG. 6L
  CD31 expression (primitive wave endothelial cells): reduced
DEAB vs DMSO, early time point, FIG. 6A
  expression of ectoderm and neuroectoderm marker PAX6: reduced expression
[1]
  expression of FOXF1: elevated levels
  expression of FOXC1: elevated levels
DEAB vs DMSO, first days of differentiation, FIG. 6B
  expression of mesoderm marker Brachyury: significantly increased
DEAB vs DMSO, later time points, FIG. 6A
  expression of PAX6: later equalized
DEAB, Day 4
  expression of FLK1: high levels
DEAB, Day 8, FIG. 6N
  expression of RARa: reduced levels
DEAB, Day 8, FIG. 6O
  expression of RARb: reduced levels
DEAB, Day 12, FIG. 6H
  expression of APLNR: expressed highly
DEAB, Day 12, FIG. 6J
  expression of PDGFRA: downregulated
DEAB, Days 12-15
  expression of FLK1: increased
DEAB, FIG. 6P
  expression of RA target CD38 by PCR: reduction
